Results on two substances are retold here after paper PMC13233288, “Spider venom peptides Ht1a and Gg1a are toxic to honeybee parasite Varroa destructor by topical application” (npj Drug Discovery, 2026).

“Also recorded” adds a separate entry of the source. No end group written: not given here.

For one data set, the system named is V. destructor mites. Kind of data set: Topical varroa assay of venom fractions / purified native peptides. The class given is in vivo, Varroa destructor. As to conditions: native peptide / HPLC fraction; Ht1a three cohorts of 5 mites, Gg1a two cohorts of 5 mites. As to the method:
An outline of the project discovery pipeline is presented in Supplementary Fig. 1. To identify varroacidal venom peptides, we screened venoms for activity against V. destructor by topical application. Topical tests were performed in several stages. First, whole venom was tested to determine mortality for V. destructor. Hit venoms were then subjected to several fractionation steps to isolate the active compounds. For the initial venom screen, a panel of 50 arthropod venoms (Table 1) were topically applied to V. destructor mites. Venoms were dissolved in 90% acetonitrile (v/v), and a 10 μg venom aliquot was applied per mite (n = 5 mites per venom). The dorsal plate of V. destructor mites (average mass 0.38 mg) was fixed to adhesive tape (ScotchTM 666 3 M; 19 × 32.9 mm, double sided) on microscope slides (ground edges 90° frosted end, 76 × 26 mm). A Nanoject II (Automatic Injector with Glass Capillaries, Drummond Cat.No. 3-000-205 A) was used for topical application of venom and control (90% acetonitrile) solutions. […] Mite mortality was determined at various time intervals up to 48 h after the treatment using an Olympus stereomicroscope (SZX10/SZX2 Series). […] The percentage of mite mortality for each venom was calculated at 2, 6 and 24 h, and adjusted by correcting for the mortality of the corresponding control group receiving only 90% acetonitrile. […]

In a further data set the test system is hNaV1.4. Kind of data set: Automated whole-cell patch clamp, hNaV1.4 + β1 in HEK 293 cells. It is filed as cell-based, human. As to conditions: 3 μM, 50 ms pulse to −20 mV from −90 mV, ECS with 0.1% BSA, at least 2 min. Here is the method: (§1) To examine for off-target activity on mammalian ion channels and receptors, we first tested the activity of sHt1a and Gg1a against human NaV channels. Whole-cell patch-clamp recordings were performed on Human Embryonic Kidney (HEK) 293 cells stably expressing human NaV1.4 or NaV1.5 in conjunction with the β1 subunit (SB Drug Discovery, Glasgow, United Kingdom) using a QPatch II automated electrophysiology platform (Sophion Bioscience, Ballerup, Denmark). Whole-cell currents were filtered at 8 kHz and acquired at 25 kHz. The linear leak was corrected by P/4 subtraction (leak potential −90 mV, leak sweep amplitude 10%). Series resistance across recorded cells ranged between 5 and 10 MΩ. The extracellular solution (ECS) consisted of (in mM): 145 NaCl, 4 KCl, 2 CaCl2, 1 MgCl2, 10 HEPES, and 10 glucose, adjusted to pH 7.4 with NaOH and to 305 mOsm/L with sucrose. The intracellular solution (ICS) consisted of (in mM): 140 CsF, 1 EGTA, 5 CsOH, 10 HEPES, and 10 NaCl, adjusted to pH 7.3 with CsOH and 320 mOsm/L with sucrose. Currents were elicited from a holding potential of −90 mV delivered with a 50 ms depolarising pulse to −20 mV every 20 s (0.05 Hz). Peptides were diluted in ECS containing 0.1% BSA and applied to cells for at least 2 min at the concentrations stated. Peak currents were normalised to the buffer control.

In the next data set the test system is hNaV1.5. Kind of data set: Automated whole-cell patch clamp, hNaV1.5 + β1 in HEK 293 cells. Conditions: 3 μM, 50 ms pulse to −20 mV from −90 mV, ECS with 0.1% BSA, at least 2 min. The class given is cell-based, human. Here is the method: as §1
(In general: The patch-clamp technique gives a direct electrical read-out from membranes.)

For data set [1], the system named is hα3β2/4 nicotinic acetylcholine receptor (nAchR). Kind of data set: FLIPR Ca2+ fluorescence, nicotine-stimulated SH-SY5Y cells. It is filed as cell-based, human. As to conditions: 10 µM, added 5 min prior to nicotine (30 µM). As to the method:
To further test the selectivity of sHt1a and sGg1a, we examined their activity on hNaV1.2/NaV1.7 and hCaV2.2 channels, as well as the hα3β2/4 nicotinic acetylcholine receptor (nAchR), that are endogenously expressed in the neuroblastoma cell line SH-SY5Y using a high-throughput fluorescent assay as previously described. In brief, SH-SY5Y cells were seeded at a density of 40,000 cells/well in black-walled imaging plates (Corning, Lowell, MA, USA), then incubated for 48 h at 37 °C in a 5% humidified CO2 incubator. On the day of the assay, cells were loaded with Calcium 4 No-wash dye (Molecular Devices) by reconstituting the lyophilised dye in physiological salt solution (PSS in mM: 140 NaCl, 11.5 glucose, 5.9 KCl, 1.4 MgCl2, 1.2 NaH2PO4, 5 NaHCO3, 1.8 CaCl2, 10 HEPES, pH 7.4). Cells were incubated with the dye for 30 min at 37 °C in a 5% humidified CO2 incubator. Gg1a and Ht1a (10 µM) were added 5 min prior to stimulation with either veratridine (50 µM, hNaV1.2/NaV1.7 activator), nicotine (30 µM, hα3β2/4 nAchR activator) or KCl/CaCl2 (90 mM/5 mM, CaV1.3/2.2 activator) Fluorescent responses were recorded using a FLIPR^Penta fluorescent plate reader (Molecular Devices) with excitation at 470–495 nm and emission at 515–575 nm.

Turning to “KYCAPRKAVCNTPADCCDKSSRCAYPNYGLGYYLDSEFFGKRKICSWRL (also: bicyclic or more (positions not given here)) [Ht1a, μ-gradutoxin-Ht1a]”, the topical varroacidal activity result in the data set on V. destructor mites is on record as “contained the varroacidal activity; also recorded: confirmed”. Also, the “effect on hNaV1.4 currents” value was “inactive” with hNaV1.4 and “did not significantly affect” in the data set with hNaV1.4 (listed as sHt1a). Besides, the “effect on hNaV1.5 currents” value in the data set with hNaV1.5 is “inactive”; in the data set on hNaV1.5 (listed as sHt1a), “did not significantly affect”. Besides, the “inhibition of nicotine-mediated Ca2+ influx (α3 nAChRs)” value in data set [1] was “partially blocked”; in data set [1] (listed as sHt1a), “partial inhibition”.
As to U1-macrothelitoxin-Gg1a, in the data set on V. destructor mites, the topical varroacidal activity result is listed as “topical varroacidal activity; also recorded: confirmed”. Also, the figures for the “effect on hNaV1.4 currents” value in the data set on hNaV1.4 and in the data set with hNaV1.4 (listed as sGg1a) were “inactive” and “did not significantly affect”, respectively. Also, the entries for the “effect on hNaV1.5 currents” value in the data set with hNaV1.5 and in the data set on hNaV1.5 (listed as sGg1a) were “inactive” and “did not significantly affect”, respectively. In addition, the “inhibition of nicotine-mediated Ca2+ influx (α3 nAChRs)” value in data set [1] was “inactive”.
